Data taken from PMC5837957 (European journal of medicinal chemistry, 2018).
Several values for one entry are separate records, joined by “and”; a condition that tells them apart may be missing. Equal entries are not always repeated. Entries after “also recorded” stand apart in the source; their conditions may differ. Where two headings read alike, the source gives them in different places. Positions of bridges follow the written chain, without caps; N, C: chain ends. Residues, ends and D or L forms follow the SMILES beside them. *: point of attachment. Stearoyl = CCCCCCCCCCCCCCCCCC(=O)*; Octanoyl = CCCCCCCC(=O)*

What was measured:
[1] = system: Calu-6 lung cancer cell line; conditions: for % cell death Calu 6: 72-hour treatment, inactive indicates no growth inhibition at a concentration of 100 µM; for IC50: 2 h
[2] = system: K562 myelogenous leukemia cell line; conditions: for % cell death K562: 72-hour treatment
recombinant LSD1/CoREST = recombinant LSD1/CoREST (Homo sapiens, UniProt O60341); assay: In vitro LSD1 demethylation assay; format: biochemical; conditions: Table 3, truncated peptides; inhibitor 500 nM; 0.5 µM
recombinant LSD1 = conditions: cited from earlier work
LSD1 bound to CoREST = conditions: read-out: Ki, LSD1 bound to CoREST; cited from earlier work
[3] = system: H3K4me2 at the promoter of the FEZ1 gene in NCI-H526 cells; assay: ChIP-qPCR of H3K4me2 at FEZ1 promoter; format: cell-based; conditions: 100 µM, 48 h
MCF-7 breast cancer line [4] = conditions: 2 h
[5] = system: global H3K4me2 in Calu6 lung adenocarcinoma cells; assay: Western blot of global H3K4me2, Calu6; conditions: 10 µM, 48-hour exposure
[6] = system: H3K4me2 at the promoter of the IGFBP2 gene in NCI-H526 cells; assay: ChIP-qPCR of H3K4me2 at IGFBP2 promoter; format: cell-based; conditions: 100 µM, 48 h
[7] = system: global H3K4me2 in K562 leukemia cells; assay: Western blot of global H3K4me2, K562
MCF-7 breast cancer line [8] = assay: cells; conditions: Homo sapiens, MCF7, 72 h, 72-hour treatment
[9] = system: Calu-6 lung cancer cell line; assay: cells; conditions: Homo sapiens, Calu-6, 72 h, 72-hour treatment
[10] = system: Calu-6 lung cancer cell line; conditions: read-out: IC50 (Calu-6); cited from earlier work
MCF-7 breast cancer line [11] = conditions: read-out: IC50 (MCF7); cited from earlier work

## H-ARAM c[K^5TARK^9E^10]TGG-K^14A-NH2 [Compound 22]
[1]
  % cell death Calu 6: inactive
[2]; 1.0 µM
  % cell death K562: 53 ± 11.3%
[2]; 100 µM
  % cell death K562: 11 ± 3.2%
Recombinant LSD1/CoREST
  % inhibition of LSD1 at 500 nM: 73.4% and 73.43 ± 3.75%

## H-ARTMK^5TARKS^10TGGKAPRKQLA-OH [Compound 8]
Recombinant LSD1; read-out: IC50 (LSD1)
  IC50: 0.051 µM
Recombinant LSD1; read-out: Ki (LSD1)
  Ki: 0.04 µM
LSD1 bound to CoREST
  Ki: 0.05 µM

## CCCCCCCC(=O)NCCCC[C@H](NC(=O)[C@H](C)NC(=O)[C@H](CC(C)C)NC(=O)[C@H](CCC(N)=O)NC(=O)[C@H](CCCCN)NC(=O)[C@H](CCCNC(=N)N)NC(=O)[C@@H]1CCCN1C(=O)[C@H](C)NC(=O)[C@H](CCCCN)NC(=O)CNC(=O)CNC(=O)[C@@H](NC(=O)[C@@H]1CCC(=O)NCCCC[C@H](NC(=O)[C@H](CCSC)NC(=O)[C@H](C)NC(=O)[C@H](CCCNC(=N)N)NC(=O)[C@H](C)N)C(=O)N[C@@H]([C@@H](C)O)C(=O)N[C@@H](C)C(=O)N[C@@H](CCCNC(=N)N)C(=O)N[C@@H](CCCCN)C(=O)N1)[C@@H](C)O)C(N)=O [Compound 28] (H-ARAMKTARKETGGKAPRKQLAK(Octanoyl)-NH2; lactam 5-10)
[3]
  H3K4me2 levels at the FEZ1 promoter: greatest increase; also recorded: increases H3K4me2 marks
MCF-7 breast cancer line [4]
  IC50: 28.1 µM
[1]
  IC50: 40.2 µM
[5]
  change in global H3K4 methylation compared to control: did not induce any changes
[2]; 2 h
  IC50: 95.1 µM
[6]
  H3K4me2 levels at the IGFBP2 promoter: greatest increase; also recorded: increases H3K4me2 marks
[7]; 0.1 µM and 1.0 µM, 48 h, preliminary study
  dose dependence of H3K4 methylation: modest dose dependent increase

## N=C(NCCCNCCCCCCCNCCCNC(=N)NC(=N)NCCC(c1ccccc1)c1ccccc1)NC(=N)NCCC(c1ccccc1)c1ccccc1 [Compound 3, verlindamycin]
MCF-7 breast cancer line [8]; read-out: IC50 (MCF7), Table 2
  IC50: 5.1 µM
MCF-7 breast cancer line [8]; read-out: IC50 (MCF7), Table 6
  IC50: 2.5 µM
[9]; read-out: IC50 (Calu-6), Table 2
  IC50: 6.3 µM
[9]; read-out: IC50 (Calu-6), Table 6
  IC50: 1.6 µM

## H-ARAM c[K^5TARK^9E^10]TG-NH2 [Compound 23]
[1]
  % cell death Calu 6: inactive
[2]; 1.0 µM
  % cell death K562: 90 ± 9.4%
[2]; 100 µM
  % cell death K562: 18 ± 3.7%
Recombinant LSD1/CoREST
  % inhibition of LSD1 at 500 nM: 67.3% and 67.31 ± 5.81%

## CCCCCCCCCCCCCCCCCC(=O)NCCCC[C@H](NC(=O)[C@H](C)NC(=O)[C@H](CC(C)C)NC(=O)[C@H](CCC(N)=O)NC(=O)[C@H](CCCCN)NC(=O)[C@H](CCCNC(=N)N)NC(=O)[C@@H]1CCCN1C(=O)[C@H](C)NC(=O)[C@H](CCCCN)NC(=O)CNC(=O)CNC(=O)[C@@H](NC(=O)[C@@H]1CCC(=O)NCCCC[C@H](NC(=O)[C@H](CCSC)NC(=O)[C@H](C)NC(=O)[C@H](CCCNC(=N)N)NC(=O)[C@H](C)N)C(=O)N[C@@H]([C@@H](C)O)C(=O)N[C@@H](C)C(=O)N[C@@H](CCCNC(=N)N)C(=O)N[C@@H](CCCCN)C(=O)N1)[C@@H](C)O)C(N)=O [Compound 26] (H-ARAMKTARKETGGKAPRKQLAK(Stearoyl)-NH2; lactam 5-10)
MCF-7 breast cancer line [4]
  IC50: < 5 µM
[1]
  IC50: < 11 µM

## H-ARTM-c[K^5TARK^9E^10]TGGK^14APRKQLA-NH2 [Compound 9]
[10]
  IC50: 158 µM
MCF-7 breast cancer line [11]
  IC50: 153 µM

## H-ARAM c[K^5TARK^9E^10] -NH2 [Compound 24]
[1]
  % cell death Calu 6: inactive
Recombinant LSD1/CoREST
  % inhibition of LSD1 at 500 nM: 59.8% and 59.78 ± 5.71%

## CCCCCCCCCCCCCCCCCC(=O)NCCCC[C@H](NC(=O)[C@H](C)NC(=O)[C@H](CC(C)C)NC(=O)[C@H](CCC(N)=O)NC(=O)[C@H](CCCCN)NC(=O)[C@H](CCCNC(=N)N)NC(=O)[C@@H]1CCCN1C(=O)[C@H](C)NC(=O)[C@H](CCCCN)NC(=O)CNC(=O)CNC(=O)[C@@H](NC(=O)[C@@H]1CCC(=O)NCCCC[C@H](NC(=O)[C@H](CCSC)NC(=O)[C@@H](NC(=O)[C@H](CCCNC(=N)N)NC(=O)[C@H](C)N)[C@@H](C)O)C(=O)N[C@@H]([C@@H](C)O)C(=O)N[C@@H](C)C(=O)N[C@@H](CCCNC(=N)N)C(=O)N[C@@H](CCCCN)C(=O)N1)[C@@H](C)O)C(N)=O [Compound 25]
MCF-7 breast cancer line [4]
  IC50: < 5 µM
[1]
  IC50: < 11 µM

## CCCCCCCC(=O)NCCCC[C@H](NC(=O)[C@H](C)NC(=O)[C@H](CC(C)C)NC(=O)[C@H](CCC(N)=O)NC(=O)[C@H](CCCCN)NC(=O)[C@H](CCCNC(=N)N)NC(=O)[C@@H]1CCCN1C(=O)[C@H](C)NC(=O)[C@H](CCCCN)NC(=O)CNC(=O)CNC(=O)[C@@H](NC(=O)[C@@H]1CCC(=O)NCCCC[C@H](NC(=O)[C@H](CCSC)NC(=O)[C@@H](NC(=O)[C@H](CCCNC(=N)N)NC(=O)[C@H](C)N)[C@@H](C)O)C(=O)N[C@@H]([C@@H](C)O)C(=O)N[C@@H](C)C(=O)N[C@@H](CCCNC(=N)N)C(=O)N[C@@H](CCCCN)C(=O)N1)[C@@H](C)O)C(N)=O [Compound 27]
[3]
  H3K4me2 levels at the FEZ1 promoter: increases H3K4me2 marks
MCF-7 breast cancer line [4]
  IC50: 36.1 µM
[1]
  IC50: 92.4 µM
[5]
  change in global H3K4 methylation compared to control: did not induce any changes
[6]
  H3K4me2 levels at the IGFBP2 promoter: increases H3K4me2 marks
[7]; 10 µM, 48-hour exposure, normalized to GAPDH
  increase in global H3K4me2 compared to control: 17.6 fold

## H-ARAM c[K^5TARK^9E^10]TGG-K^14APRK-NH2 [Compound 21]
[2]; 1.0 µM
  % cell death K562: 59 ± 8.1%
[2]; 100 µM
  % cell death K562: 9.5 ± 6.7%

## Cl.Cl.c1ccc([C@@H]2C[C@H]2NC2CCNCC2)cc1 [GSK-LSD1, reference compound]
[3]
  H3K4me2 levels at the FEZ1 promoter: increases H3K4me2 marks; also recorded: somewhat less effective
[6]
  H3K4me2 levels at the IGFBP2 promoter: increases H3K4me2 marks; also recorded: somewhat less effective
